Earlier results as cited in patent US5525603A, “Compositions, methods and kits for potentiating antitumor effect and for treating tumor” (priority 1991, dated 1996).

How the values were obtained:
[1] = test system: oral cavity, gastrointestinal tissue; details: prolonged presence in the living body, continuous intravenous infusion of 5-FU alone
[2] = in combination with 5-FU or 5-FU derivative

SMILES	disorder (inflammation) in the oral cavity, gastrointestinal tissue and the like [1]	effect on antitumor effect of 5-FU or 5-FU derivative [2]	inhibition of inflammation caused by 5-FU or 5-FU derivative [2]
O=c1[nH]cc(F)c(=O)[nH]1 [5-FU, 5-fluorouracil]	likely to cause a disorder (inflammation) in the oral cavity, gastrointestinal tissue and the like		
O=C(O)c1nc(=O)[nH]c(=O)[nH]1 [oxonic acid]		reduces the antitumor effect of 5-FU or 5-FU derivative	can inhibit the occurrence of inflammation caused by 5-FU or 5-FU derivative
